Data taken from the NIST ThermoML archive (doi:10.1021/acs.jced.6b00037).
Numbers after ± are expanded uncertainties.

Columns and labels:
[1] = Crystal; DSC
[2] = Molar enthalpy of transition or fusion; details: Crystal; DSC

## CCOC(=O)c1ccc(N)cc1 [ethyl 4-aminobenzoate]
[1]
  Triple point temperature: 363.2 ± 1.2 K
[2]
  Molar enthalpy of transition or fusion: 5.24 ± 0.237 kcal/mol
